Reference: PMC10269487, “Plasmodium Parasite Malate-Quinone Oxidoreductase Functionally Complements a Yeast Deletion Mutant of Mitochondrial Malate Dehydrogenase” (Microbiology Spectrum, 2023)
pIC50: −log10 of the molar value.

What was measured:
[1] = biological target: T1, yeast succinate dehydrogenase (Saccharomyces cerevisiae, UniProt P21801+P33421+P37298+Q00711); test: inhibition of yeast succinate dehydrogenase activity (Fig. S2); format: cell-based
T1 construct: gene SDH1

[2] = biological target: T2, malate-quinone oxidoreductase (PfMQO) (Plasmodium falciparum, UniProt C6KT09); test: malate:dUQ/DCIP reductase activity in mitochondrial fraction of PfMQO-expressing yeast, with ΔMdh1 as negative control; format: biochemical
T2 construct: gene PF3D7_0616800; native full-length PfMQO from codon-optimized cDNA, expressed in ΔMdh1 yeast mitochondria
T2 sequence (C6KT09 1-521): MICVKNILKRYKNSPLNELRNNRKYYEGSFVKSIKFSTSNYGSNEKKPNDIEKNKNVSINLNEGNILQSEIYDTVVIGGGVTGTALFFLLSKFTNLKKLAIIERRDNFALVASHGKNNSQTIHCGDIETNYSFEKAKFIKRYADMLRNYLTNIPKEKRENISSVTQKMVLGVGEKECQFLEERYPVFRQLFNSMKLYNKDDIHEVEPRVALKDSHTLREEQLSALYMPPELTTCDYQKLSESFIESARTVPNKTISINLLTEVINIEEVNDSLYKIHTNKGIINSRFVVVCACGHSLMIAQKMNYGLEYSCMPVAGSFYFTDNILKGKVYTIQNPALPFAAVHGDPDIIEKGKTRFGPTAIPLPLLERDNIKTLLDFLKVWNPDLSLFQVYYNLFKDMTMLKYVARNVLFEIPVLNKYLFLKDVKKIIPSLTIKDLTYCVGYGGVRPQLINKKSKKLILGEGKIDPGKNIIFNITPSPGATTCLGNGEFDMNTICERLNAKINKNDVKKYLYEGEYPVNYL

T1 sequence (Q00711 29-640): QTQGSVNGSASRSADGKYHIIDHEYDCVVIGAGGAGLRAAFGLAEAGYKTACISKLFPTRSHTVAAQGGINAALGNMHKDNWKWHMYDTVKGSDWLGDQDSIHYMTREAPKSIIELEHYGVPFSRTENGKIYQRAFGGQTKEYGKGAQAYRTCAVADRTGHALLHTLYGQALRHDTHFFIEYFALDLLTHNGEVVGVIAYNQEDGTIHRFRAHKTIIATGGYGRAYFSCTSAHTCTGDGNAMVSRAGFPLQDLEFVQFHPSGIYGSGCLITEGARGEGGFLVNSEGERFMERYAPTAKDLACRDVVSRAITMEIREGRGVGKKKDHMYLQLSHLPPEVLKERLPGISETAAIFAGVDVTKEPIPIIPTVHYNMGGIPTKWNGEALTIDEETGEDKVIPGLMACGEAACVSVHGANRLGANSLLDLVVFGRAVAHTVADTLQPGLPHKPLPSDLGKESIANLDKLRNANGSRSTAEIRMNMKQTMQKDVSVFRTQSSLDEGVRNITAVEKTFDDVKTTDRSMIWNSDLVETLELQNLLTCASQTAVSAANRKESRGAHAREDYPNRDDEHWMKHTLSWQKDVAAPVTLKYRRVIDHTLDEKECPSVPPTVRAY
T1 sequence (P21801 21-266): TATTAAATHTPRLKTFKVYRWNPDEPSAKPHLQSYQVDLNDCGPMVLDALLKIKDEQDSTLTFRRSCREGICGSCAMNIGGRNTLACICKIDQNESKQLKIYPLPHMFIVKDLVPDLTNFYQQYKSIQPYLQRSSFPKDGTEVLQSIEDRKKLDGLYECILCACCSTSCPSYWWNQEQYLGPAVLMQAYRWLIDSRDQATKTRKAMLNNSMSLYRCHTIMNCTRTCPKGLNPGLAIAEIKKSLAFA
T1 sequence (P33421 51-198): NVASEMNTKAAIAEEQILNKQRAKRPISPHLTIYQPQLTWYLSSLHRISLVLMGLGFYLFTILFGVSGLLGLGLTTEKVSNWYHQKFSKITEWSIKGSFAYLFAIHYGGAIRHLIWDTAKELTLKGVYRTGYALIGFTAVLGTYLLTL
T1 sequence (P37298 32-181): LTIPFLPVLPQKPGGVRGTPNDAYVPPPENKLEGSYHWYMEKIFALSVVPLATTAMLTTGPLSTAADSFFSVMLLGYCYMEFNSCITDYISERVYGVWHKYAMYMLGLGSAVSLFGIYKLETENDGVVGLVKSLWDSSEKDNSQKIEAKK

Question: How did the pIC50 [1] turn out when `CC(C)=CCC/C(C)=C/CC/C(C)=C/Cc1c(O)c2ccccc2oc1=O` [ferulenol] was run?
Answer: ~7.00

Question: What about the “malate:dUQ/DCIP reductase activity in mitochondrial fraction of PfMQO-expressing” value [2] of the same compound?
Answer: almost completely suppressed by 1
